This passage reports Ratio and inhibition results from ChEMBL document CHEMBL2163241, “Human neutrophil elastase phosphonic inhibitors with improved potency of action” (J Med Chem, 2012).

Experiment [1] addresses T1, Neutrophil elastase (Homo sapiens) (UniProt P08246).
T1 sequence (whole entry): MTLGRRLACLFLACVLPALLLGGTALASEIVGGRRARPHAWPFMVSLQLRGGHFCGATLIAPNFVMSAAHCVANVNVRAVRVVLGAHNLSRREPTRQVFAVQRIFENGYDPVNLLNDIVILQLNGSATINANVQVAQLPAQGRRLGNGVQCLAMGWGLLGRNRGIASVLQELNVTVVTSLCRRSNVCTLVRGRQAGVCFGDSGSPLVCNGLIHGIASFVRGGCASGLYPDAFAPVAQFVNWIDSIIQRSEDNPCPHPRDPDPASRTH
Put plainly: Inhibition of human leukocyte elastase at 25 uM assessed as Kinact/Ki ratio incubated for 15 mins by spectrofluorometry.

Experiment [2] addresses Pancreatic elastase (Sus scrofa) (UniProt P08419+P00772). Put plainly: Inhibition of porcine pancreatic elastase at 25 uM assessed as Kinact/Ki ratio incubated for 15 mins by spectrofluorometry. In kind it is protein assay.
Experiment [3] in a line: Inhibition of chymotrypsin at 25 uM assessed as Kinact/Ki ratio incubated for 15 mins by spectrofluorometry.
A short description of experiment [4]: Inhibition of trypsin at 25 uM assessed as Kinact/Ki ratio incubated for 15 mins by spectrofluorometry.

A value given as a limit tells only on which side of the number the result lay.

Take `COc1ccc(C(=O)N[C@H](C(=O)N2CCC[C@H]2C(=O)N[C@@H](C(C)C)P(=O)(Oc2ccc(SC)cc2)Oc2ccc(SC)cc2)C(C)C)cc1`: the Ratio in experiment [1] is 540000 M⁻¹ s⁻¹; in experiment [2] it was 6700 M⁻¹ s⁻¹; in experiment [3] it was 100 M⁻¹ s⁻¹; in experiment [4], less than 50 M⁻¹ s⁻¹.

By inhibition is commonly meant how much of the control response was suppressed. As for `COc1ccc(C(=O)N[C@H](C(=O)N2CCC[C@H]2C(=O)N[C@H](C(C)C)P(=O)(Oc2ccc(SC)cc2)Oc2ccc(SC)cc2)C(C)C)cc1`, the Ratio in experiment [1] is 4800 M⁻¹ s⁻¹; in experiment [2], less than 50 M⁻¹ s⁻¹; in experiment [3], less than 50 M⁻¹ s⁻¹. In experiment [4], the inhibition is less than 5%.

With `CSc1ccc(OP(=O)(Oc2ccc(SC)cc2)[C@@H](NC(=O)[C@@H]2CCCN2C(=O)[C@@H](NC(=O)Cn2cc(C)c(=O)n(CC(=O)O)c2=O)C(C)C)C(C)C)cc1`, the Ratio came to 1.76e+06 M⁻¹ s⁻¹ in experiment [1], 243000 M⁻¹ s⁻¹ in experiment [2], 44700 M⁻¹ s⁻¹ in experiment [3] and 280 M⁻¹ s⁻¹ in experiment [4].

Turning to `CSc1ccc(OP(=O)(Oc2ccc(SC)cc2)[C@@H](NC(=O)[C@@H]2CCCN2C(=O)[C@@H](NC(=O)OC(C)(C)C)C(C)C)C(C)C)cc1`, the Ratio in experiment [1] is 431000 M⁻¹ s⁻¹; in experiment [2] it was 22300 M⁻¹ s⁻¹; in experiment [3] it was 850 M⁻¹ s⁻¹; in experiment [4], less than 50 M⁻¹ s⁻¹.

For the compound `CSc1ccc(OP(=O)(Oc2ccc(SC)cc2)[C@H](NC(=O)[C@@H]2CCCN2C(=O)[C@@H](NC(=O)COc2ccc(OCC(=O)O)cc2)C(C)C)C(C)C)cc1`, the Ratio in experiment [1] was 1550 M⁻¹ s⁻¹; in experiment [2] it was 85 M⁻¹ s⁻¹; in experiment [3] it was less than 50 M⁻¹ s⁻¹; in experiment [4] it was less than 50 M⁻¹ s⁻¹.

Take `CSc1ccc(OP(=O)(Oc2ccc(SC)cc2)[C@H](NC(=O)[C@@H]2CCCN2C(=O)[C@@H](NC(=O)Cn2cc(C)c(=O)n(CC(=O)O)c2=O)C(C)C)C(C)C)cc1`: the Ratio was 4100 M⁻¹ s⁻¹ in experiment [1], 300 M⁻¹ s⁻¹ in experiment [2] and less than 50 M⁻¹ s⁻¹ in experiment [3]. Besides, in experiment [4], the inhibition was less than 5%.

Consider `CSc1ccc(OP(=O)(Oc2ccc(SC)cc2)[C@H](NC(=O)[C@@H]2CCCN2C(=O)[C@@H](NC(=O)Cn2ccc(=O)n(CC(=O)O)c2=O)C(C)C)C(C)C)cc1`, for which the Ratio in experiment [1] is 2000 M⁻¹ s⁻¹; in experiment [2] it was 200 M⁻¹ s⁻¹; in experiment [3] it was less than 50 M⁻¹ s⁻¹. The inhibition in experiment [4] was less than 5%.

`CSc1ccc(OP(=O)(Oc2ccc(SC)cc2)[C@H](NC(=O)[C@@H]2CCCN2C(=O)[C@@H](NC(=O)OC(C)(C)C)C(C)C)C(C)C)cc1`: the results for the Ratio in experiment [1], in experiment [2] and in experiment [3] were 2650 M⁻¹ s⁻¹, less than 50 M⁻¹ s⁻¹ and less than 50 M⁻¹ s⁻¹, respectively. In addition, the inhibition in experiment [4] was less than 5%.

As for `CC(C)C(NC(=O)[C@@H]1CCCN1C(=O)[C@@H](NC(=O)OC(C)(C)C)C(C)C)P(=O)(Oc1ccc(Cl)cc1)Oc1ccc(Cl)cc1` (mixture of isomers), the Ratio in experiment [1] was 92100 M⁻¹ s⁻¹; in experiment [2] it was 5000 M⁻¹ s⁻¹; in experiment [3] it was 250 M⁻¹ s⁻¹; in experiment [4], less than 50 M⁻¹ s⁻¹.

Consider `CC(C)CC(NC(=O)[C@@H]1CCCN1C(=O)[C@@H](NC(=O)OC(C)(C)C)C(C)C)P(=O)(Oc1ccc(Cl)cc1)Oc1ccc(Cl)cc1` (mixture of isomers), for which the Ratio in experiment [1] was 3400 M⁻¹ s⁻¹; in experiment [2], 12800 M⁻¹ s⁻¹; in experiment [3] it was 18100 M⁻¹ s⁻¹; in experiment [4], less than 50 M⁻¹ s⁻¹.

Take `CC(C)CC(NC(=O)[C@@H]1CCCN1C(=O)[C@@H](NC(=O)OC(C)(C)C)C(C)C)P(=O)(Oc1ccccc1)Oc1ccccc1` (mixture of isomers): the Ratio was 325 M⁻¹ s⁻¹ in experiment [1], 1300 M⁻¹ s⁻¹ in experiment [2], 1900 M⁻¹ s⁻¹ in experiment [3] and less than 50 M⁻¹ s⁻¹ in experiment [4].

As for `CC(C)c1ccc(OP(=O)(Oc2ccc(C(C)C)cc2)C(NC(=O)[C@@H]2CCCN2C(=O)[C@@H](NC(=O)OC(C)(C)C)C(C)C)C(C)C)cc1` (mixture of isomers), the Ratio in experiment [1] was 4200 M⁻¹ s⁻¹; in experiment [2], 2000 M⁻¹ s⁻¹; in experiment [3] it was less than 50 M⁻¹ s⁻¹; in experiment [4], less than 50 M⁻¹ s⁻¹.

Regarding `CCC(NC(=O)[C@@H]1CCCN1C(=O)[C@@H](NC(=O)OC(C)(C)C)C(C)C)P(=O)(Oc1ccc(C(C)C)cc1)Oc1ccc(C(C)C)cc1` (mixture of isomers), the Ratio in experiment [1] was less than 50 M⁻¹ s⁻¹; in experiment [2] it was 580 M⁻¹ s⁻¹; in experiment [3], less than 50 M⁻¹ s⁻¹; in experiment [4], less than 50 M⁻¹ s⁻¹.

Turning to `CCC(NC(=O)[C@@H]1CCCN1C(=O)[C@@H](NC(=O)OC(C)(C)C)C(C)C)P(=O)(Oc1ccc(C)c(C)c1)Oc1ccc(C)c(C)c1` (mixture of isomers), the Ratio in experiment [1] was 460 M⁻¹ s⁻¹; in experiment [2] it was 1250 M⁻¹ s⁻¹; in experiment [3] it was less than 50 M⁻¹ s⁻¹; in experiment [4] it was less than 50 M⁻¹ s⁻¹.

For the compound `CCC(NC(=O)[C@@H]1CCCN1C(=O)[C@@H](NC(=O)OC(C)(C)C)C(C)C)P(=O)(Oc1ccc(OC)cc1)Oc1ccc(OC)cc1` (mixture of isomers), the Ratio in experiment [1] is 11000 M⁻¹ s⁻¹; in experiment [2], 9900 M⁻¹ s⁻¹; in experiment [3], less than 50 M⁻¹ s⁻¹; in experiment [4], less than 50 M⁻¹ s⁻¹.

As for `CCC(NC(=O)[C@@H]1CCCN1C(=O)[C@@H](NC(=O)OC(C)(C)C)C(C)C)P(=O)(Oc1ccc(SC)cc1)Oc1ccc(SC)cc1` (mixture of isomers), the Ratio worked out at 165000 M⁻¹ s⁻¹ in experiment [1], 60100 M⁻¹ s⁻¹ in experiment [2], 365 M⁻¹ s⁻¹ in experiment [3] and 460 M⁻¹ s⁻¹ in experiment [4].

With `CCCC(NC(=O)[C@@H]1CCCN1C(=O)[C@@H](NC(=O)OC(C)(C)C)C(C)C)P(=O)(Oc1ccccc1)Oc1ccccc1` (mixture of isomers), the Ratio is 2600 M⁻¹ s⁻¹ in experiment [1], 10900 M⁻¹ s⁻¹ in experiment [2], 140 M⁻¹ s⁻¹ in experiment [3] and less than 50 M⁻¹ s⁻¹ in experiment [4].

On to `CCCCC(NC(=O)[C@@H]1CCCN1C(=O)[C@@H](NC(=O)OC(C)(C)C)C(C)C)P(=O)(Oc1ccccc1)Oc1ccccc1` (mixture of isomers), for which the Ratio in experiment [1] is 650 M⁻¹ s⁻¹; in experiment [2], 1700 M⁻¹ s⁻¹; in experiment [3], 400 M⁻¹ s⁻¹; in experiment [4] it was less than 50 M⁻¹ s⁻¹.

For `CC[C@H](C)[C@H](NC(=O)OCc1ccccc1)C(=O)N1CCC[C@H]1C(=O)NC(C(C)C)P(=O)(Oc1ccc(SC)cc1)Oc1ccc(SC)cc1` (mixture of isomers), the Ratio was 145000 M⁻¹ s⁻¹ in experiment [1], 1800 M⁻¹ s⁻¹ in experiment [2], 1600 M⁻¹ s⁻¹ in experiment [3] and less than 50 M⁻¹ s⁻¹ in experiment [4].

As for `COc1ccc(OP(=O)(Oc2ccc(OC)cc2)C(CC(C)C)NC(=O)[C@@H]2CCCN2C(=O)[C@@H](NC(=O)OC(C)(C)C)C(C)C)cc1` (mixture of isomers), the Ratio in experiment [1] is 270 M⁻¹ s⁻¹; in experiment [2], 960 M⁻¹ s⁻¹; in experiment [3], 1700 M⁻¹ s⁻¹; in experiment [4] it was less than 50 M⁻¹ s⁻¹.

Regarding `COc1ccc(OP(=O)(Oc2ccc(OC)cc2)C(NC(=O)[C@@H]2CCCN2C(=O)[C@@H](NC(=O)OC(C)(C)C)C(C)C)C(C)C)cc1` (mixture of isomers), the Ratio in experiment [1] is 42700 M⁻¹ s⁻¹; in experiment [2] it was 19500 M⁻¹ s⁻¹; in experiment [3], less than 50 M⁻¹ s⁻¹; in experiment [4] it was less than 50 M⁻¹ s⁻¹.

For the compound `CSCC[C@H](NC(=O)OCc1ccccc1)C(=O)N1CCC[C@H]1C(=O)NC(C(C)C)P(=O)(Oc1ccc(SC)cc1)Oc1ccc(SC)cc1` (mixture of isomers), the Ratio in experiment [1] was 223000 M⁻¹ s⁻¹; in experiment [2] it was 6300 M⁻¹ s⁻¹; in experiment [3], 3700 M⁻¹ s⁻¹; in experiment [4], less than 50 M⁻¹ s⁻¹.

`CSc1ccc(OP(=O)(Oc2ccc(SC)cc2)C(CC(C)C)NC(=O)[C@@H]2CCCN2C(=O)[C@@H](NC(=O)OC(C)(C)C)C(C)C)cc1` (mixture of isomers): the Ratio worked out at 4100 M⁻¹ s⁻¹ in experiment [1], 11200 M⁻¹ s⁻¹ in experiment [2], 21900 M⁻¹ s⁻¹ in experiment [3] and 280 M⁻¹ s⁻¹ in experiment [4].

Turning to `CSc1ccc(OP(=O)(Oc2ccc(SC)cc2)C(NC(=O)[C@@H]2CCCN2C(=O)CNC(=O)OC(C)(C)C)C(C)C)cc1` (mixture of isomers), the Ratio was 35000 M⁻¹ s⁻¹ in experiment [1], 5100 M⁻¹ s⁻¹ in experiment [2], less than 50 M⁻¹ s⁻¹ in experiment [3] and less than 50 M⁻¹ s⁻¹ in experiment [4].

Consider `CSc1ccc(OP(=O)(Oc2ccc(SC)cc2)C(NC(=O)[C@@H]2CCCN2C(=O)CNC(=O)OCc2ccccc2)C(C)C)cc1` (mixture of isomers), for which the Ratio in experiment [1] was 39000 M⁻¹ s⁻¹; in experiment [2], 1200 M⁻¹ s⁻¹; in experiment [3], 200 M⁻¹ s⁻¹; in experiment [4] it was less than 50 M⁻¹ s⁻¹.

As for `CSc1ccc(OP(=O)(Oc2ccc(SC)cc2)C(NC(=O)[C@@H]2CCCN2C(=O)[C@@H](C)NC(=O)OC(C)(C)C)C(C)C)cc1` (mixture of isomers), the Ratio in experiment [1] was 39400 M⁻¹ s⁻¹; in experiment [2], 900 M⁻¹ s⁻¹; in experiment [3] it was less than 50 M⁻¹ s⁻¹; in experiment [4], less than 50 M⁻¹ s⁻¹.

Consider `CSc1ccc(OP(=O)(Oc2ccc(SC)cc2)C(NC(=O)[C@@H]2CCCN2C(=O)[C@@H](NC(=O)OCc2ccccc2)C(C)C)C(C)C)cc1` (mixture of isomers), for which the Ratio was 231000 M⁻¹ s⁻¹ in experiment [1], 6200 M⁻¹ s⁻¹ in experiment [2], 4400 M⁻¹ s⁻¹ in experiment [3] and less than 50 M⁻¹ s⁻¹ in experiment [4].

As for `CSc1ccc(OP(=O)(Oc2ccc(SC)cc2)C(NC(=O)[C@@H]2CCCN2C(=O)[C@H](C)NC(=O)OCc2ccccc2)C(C)C)cc1` (mixture of isomers), the Ratio was 144000 M⁻¹ s⁻¹ in experiment [1], 12000 M⁻¹ s⁻¹ in experiment [2], 1500 M⁻¹ s⁻¹ in experiment [3] and less than 50 M⁻¹ s⁻¹ in experiment [4].

For the compound `CSc1ccc(OP(=O)(Oc2ccc(SC)cc2)C(NC(=O)[C@@H]2CCCN2C(=O)[C@H](CC(C)C)NC(=O)OC(C)(C)C)C(C)C)cc1` (mixture of isomers), the Ratio in experiment [1] is 128000 M⁻¹ s⁻¹; in experiment [2], 7000 M⁻¹ s⁻¹; in experiment [3] it was 150 M⁻¹ s⁻¹; in experiment [4], less than 50 M⁻¹ s⁻¹.

Turning to `CSc1ccc(OP(=O)(Oc2ccc(SC)cc2)C(NC(=O)[C@@H]2CCCN2C(=O)[C@H](COC(C)(C)C)NC(=O)OCc2ccccc2)C(C)C)cc1` (mixture of isomers), the Ratio in experiment [1] was 162000 M⁻¹ s⁻¹; in experiment [2] it was 4300 M⁻¹ s⁻¹; in experiment [3], 500 M⁻¹ s⁻¹; in experiment [4], less than 50 M⁻¹ s⁻¹.
